Assay results: article PMC8478281, “Targeting the FtsZ Allosteric Binding Site with a Novel Fluorescence Polarization Screen, Cytological and Structural Approaches for Antibacterial Discovery” (Journal of Medicinal Chemistry, 2021)
≈ marks a conversion by molar mass, not a printed value.

Columns and labels:
[1] = target: T1, stabilized polymers of FtsZ from B. subtilis (Bacillus subtilis, UniProt P17865); test: Competition assay: displacement of probe (R)-5 from stabilized BsFtsZ-GMPCPP polymers; format: binding; details: for Kd: stabilized polymers of FtsZ from B. subtilis, probe (R)-5, mean ± SEM, read-out: KD
T1 construct: made in house
T1 sequence (P17865 whole entry): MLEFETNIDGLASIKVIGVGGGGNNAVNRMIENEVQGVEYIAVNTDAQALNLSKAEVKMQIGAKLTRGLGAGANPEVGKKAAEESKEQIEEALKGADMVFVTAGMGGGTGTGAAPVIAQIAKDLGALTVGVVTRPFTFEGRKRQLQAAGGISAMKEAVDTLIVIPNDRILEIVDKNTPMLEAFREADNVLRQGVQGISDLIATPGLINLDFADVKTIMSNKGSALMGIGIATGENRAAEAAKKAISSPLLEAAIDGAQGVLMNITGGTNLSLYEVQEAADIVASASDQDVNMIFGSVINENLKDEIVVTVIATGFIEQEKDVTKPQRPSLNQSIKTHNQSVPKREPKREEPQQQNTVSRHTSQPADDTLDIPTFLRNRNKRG
Procedure: (§1) FtsZ (10–15 μM) was assembled in HEPES buffer, 10 mM MgCl2, 50 μM GMPCPP at 25 °C for 10 min, and then 0.15% (v/v) glutaraldehyde[36] (distilled grade for microscopy, TAAB Laboratories, U.K.) was added to the solution that was incubated at 25 °C for 10 min more. (This was the minimal glutaraldehyde concentration determined to stabilize FtsZ polymers specifically binding probe 1.) The remains of the cross-linking agent were quenched by adding 60 mM NaBH4, the sample was incubated on ice for 10 min and degassed.[36] Cross-linked polymers were centrifuged for 10 min at 8200g (5000 rpm) and 4 °C in 15 mL Falcon tubes employing a Rotina 380R (Hettich) centrifuge, the supernatant was removed and the pellet was resuspended in the same volume of HEPES buffer, 10 mM MgCl2, containing 5 μM GMPCPP. Fixed FtsZ polymers were active in binding assays after more than 2 days at 4 °C; they could also be frozen in liquid nitrogen with a small loss of binding capacity. […] Cross-linked polymers of SaFtsZ were similarly prepared.
(§2) Competition assays were performed by measuring, through the decrease in fluorescence anisotropy, the displacement of the fluorescent probes from stabilized FtsZ polymers. Increasing concentrations of competing ligands were added to the mixtures of cross-linked FtsZ polymers (10–15 μM) with probe 1 (3 μM), 7–8 μM FtsZ polymers with probe (S)-2 (3 μM), or 2–3 μM FtsZ polymers with (R)-5 (3 μM). HEPES buffer with 10 mM MgCl2 and 0.1 mM GMPCPP was employed, with a final volume of 0.5 mL, and the anisotropy measured at 25 °C. Under these conditions, the initial fraction of the probe bound was between 0.4 and 0.5. The fraction of the probe bound (Vb) was calculated [drawing 1] where rfree and rmax are the anisotropy values of the free and bound probes, respectively, and R is the ratio between the fluorescence intensities of the bound and free probe (Table S1). The binding data were plotted against the competing ligand concentration and fitted by competition equilibrium of the ligand and the probe for the same binding site. The resulting system of equations[50] was numerically solved using the Equigra v. 5.0 program,[33] which provided the best-fitted value of the competitor binding constant.

MTT cytotoxicity assay = format: cell-based; details: human, IMR90 lung fibroblast cells, relative to vehicle; for viability at 100 µM: IMR90, 100 µM
Procedure: The sensitivity of the IMR90 cell line to compounds was tested through a standard 3-(4,5-dimethylthiazol-2-yl)-2,5-diphenyltetrazolium bromide (MTT) assay.[52] The results were reported as the viability percentage of the tested compound relative to vehicle (DMSO), obtained from two or three independent experiments performed in triplicate.

B. subtilis [2] = test: Minimal division inhibitory concentration and cell division phenotype, B. subtilis; format: cell-based, Bacillus subtilis; details: Bacillus subtilis, read-out: MDC B. subtilis
Procedure: (§3) B. subtilis 168 and Staphylococcus spp. were grown in cation adjusted Mueller–Hinton broth (CAMHB; Becton, Dickinson and Company) at 37 °C. B. subtilis SU570 were grown in the same medium at 30 °C. In all cases, the cells were grown to an absorbance of 0.1–0.2 at 600 nm and then incubated either with the compounds or DMSO vehicle. Microscopy assays and cell measurement were performed as previously described.[31] MIC values were determined by a broth macrodilution method.[51] MBC values were determined as the lowest concentration of inhibitor at which there was a 99.9% reduction in colony-forming units/mL compared to the inoculum. To construct a S. aureus strain expressing FtsZ-mCherry, the plasmid pCN-ftsZmch[9] was electroporated into RN4220 and 0.1 μM cadmium chloride (Sigma-Aldrich) was used to induce the expression of the construct under the control of the Pcad promoter.

[3] = Solubility in HEPES buffer with 2% DMSO, spectrophotometric; format: physicochemical; details: HEPES buffer containing 2% DMSO, 25 °C, aqueous buffer, kinetic from dmso stock; HEPES buffer pH 6.8 containing 2% DMSO
Procedure: 3.2. Solubility of Compounds. Stock solutions of compounds were prepared in
DMSO (spectroscopic grade, Merck) a nd stored at -20 °C. Compound solubility in 50
mM HEPES-KOH, 50 mM KCl, 1 mM EDTA, pH 6.8 (HEPES buffer) containing 2%
DMSO was determined spectrophotometrically, monitoring the linear correlation
between the absorbance and the compound concentration and the absence of light
scattering. The solutions were optionally centrifuged at 100000 rpm for 20 min at 25 °C
in a TLA100 rotor with a Beckman Optima Max -XP ultracentrifuge.

B. subtilis [4] = test: Minimal growth inhibitory concentration (broth macrodilution), B. subtilis; format: cell-based, Bacillus subtilis; details: Bacillus subtilis, read-out: MIC B. subtilis
Procedure: as §3

S. aureus Mu50 [5] = test: Minimal division inhibitory concentration, S. aureus Mu50; format: cell-based; details: Staphylococcus aureus, MU50, read-out: MDC S. aureus Mu50
Procedure: as §3

S. aureus = test: Minimal bactericidal concentration; format: cell-based; details: Staphylococcus aureus; 99.9% reduction in colony-forming units/mL
Procedure: as §3

S. aureus Mu50 [6] = test: Minimal growth inhibitory concentration (broth macrodilution), S. aureus Mu50; format: cell-based, Staphylococcus aureus; details: Staphylococcus aureus, MU50, read-out: MIC S. aureus Mu50
Procedure: as §3

[7] = tested on: Staphylococcus epidermidis; test: Minimal growth inhibitory concentration, S. epidermidis; format: cell-based
Procedure: as §3

[8] = tested on: Staphylococcus haemolyticus; test: Minimal growth inhibitory concentration, S. haemolyticus; format: cell-based
Procedure: as §3

[9] = tested on: S. aureus subsp. aureus (ATCC 25923); test: Minimal growth inhibitory concentration, S. aureus subsp. aureus; format: cell-based; details: Staphylococcus aureus, ATCC25923
Procedure: as §3

B. subtilis 168 = test: Cell length of B. subtilis 168 incubated with FtsZ inhibitors; format: cell-based, Bacillus subtilis; set-up: unit of the concentration uncertain; unit not given here; details: B. subtilis 168, 3 h
Procedure: Figure 4 Fluorescence anisotropy screen for FtsZ allosteric inhibitors combined with cell-based methods. (A) Screen for FtsZ inhibitors employing the fluorescence anisotropy of probe (S)-2 (3 μM) and stabilized FtsZ-GMPCPP polymers (8 μM binding sites). […] Control values with the corresponding concentrations of dimethyl sulfoxide (DMSO) vehicle (2% void and gray circles; 4%, black circle) are also shown. […] Raw data plots (n ≥ 30) are shown with the mean values marked (statistics in Table S2). The cells were incubated for 3 h with each compound, and cell lengths were measured. (D) Representative phase-contrast images of cells after 3 h with 7 or 9 (0.75 mM each). (E) Cellular localization of FtsZ-GFP in B. subtilis SU570 following growth for 1.5 h in the absence (inset) and presence of 7 (0.2 mM). Bars, 10 μm.
as §3, with “MBC values were determined as the lowest concentration of inhibitor at which there was a 99.9% reduction in colony-forming units/mL compared to the inoculum.” left out, “promoter. […]” for “promoter.”

[10] = target: T2, stabilized SaFtsZ polymers (Staphylococcus aureus, UniProt P0A031); test: Competition assay with stabilized SaFtsZ polymers; format: binding; details: read-out: KD (in parenthesis) (converted)
T2 construct: Full-length S. aureus FtsZ (SaFtsZ); made in house
T2 sequence (P0A031 whole entry): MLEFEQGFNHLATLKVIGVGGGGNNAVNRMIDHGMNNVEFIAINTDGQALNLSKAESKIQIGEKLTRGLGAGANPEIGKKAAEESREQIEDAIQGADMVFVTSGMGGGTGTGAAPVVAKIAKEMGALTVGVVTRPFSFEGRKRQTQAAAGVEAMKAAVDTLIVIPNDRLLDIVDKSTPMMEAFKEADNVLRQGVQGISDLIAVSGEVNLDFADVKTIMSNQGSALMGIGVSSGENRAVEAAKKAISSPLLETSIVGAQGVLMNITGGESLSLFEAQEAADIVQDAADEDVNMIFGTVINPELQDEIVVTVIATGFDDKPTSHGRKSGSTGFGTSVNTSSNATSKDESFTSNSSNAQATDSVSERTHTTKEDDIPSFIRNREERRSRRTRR
Procedure: Full-length S. aureus FtsZ (SaFtsZ) and the truncated protein SaFtsZ(12–315) were purified as described.[34] SaFtsZ was assembled in 50 mM MES, 50 mM KCl, 1 mM EDTA, pH 6.5 plus 10 mM MgCl2, and 0.1 mM GMPCPP.
as §1, §2

[11] = target: T3, stabilized FtsZ-GMPCPP polymers (BsFtsZ) (Bacillus subtilis, UniProt P17865); test: Competition assay: displacement of probe (S)-2 from stabilized FtsZ-GMPCPP polymers; format: binding; details: KD, (S)-2 3 μM, 8 μM binding sites
T3 construct: made in house
T3 sequence (P17865 whole entry): as the sequence (P17865 whole entry) above
Procedure: as §1, §2

SMILES	Kd [1]	viability at 100 µM (MTT cytotoxicity assay)	minimal effective concentration (B. subtilis [2])	solubility [3]	MIC (B. subtilis [4])	minimal effective concentration (S. aureus Mu50 [5])	MBC (S. aureus)	MIC (S. aureus Mu50 [6])	MIC [7]	MIC [8]	MIC [9]	viability at 25 µM (MTT cytotoxicity assay; IMR90, 25 µM)	length (B. subtilis 168; 1 (unit uncertain) as printed)	Kd [10]	fold weaker affinity and MDC than the (R)-enantiomer [1]	length (B. subtilis 168; 10 (unit uncertain) as printed)	viability at 50 µM (MTT cytotoxicity assay; IMR90, 50 µM)	Kd [11]	length (B. subtilis 168; 2.5 (unit uncertain) as printed)	length (B. subtilis 168; 5 (unit uncertain) as printed)
NC(=O)c1c(F)ccc(OCc2cccc(Cl)c2)c1F [Compound 18, 3-[(3-Chlorobenzyl)oxy]-2,6-difluorobenzamide]	1300 ± 100 nM	90 ± 7%	10 µM	≥ 100 µM	25 µM (≈ 7.44 µg/mL)	50 µM	100 µM (≈ 29.8 µg/mL)	100 µM (≈ 29.8 µg/mL)												
CCCC(COc1ccc(F)c(C(N)=O)c1F)Nc1cccc(C(F)(F)F)c1 (racemic) [rac-26, 2,6-Difluoro-3-[(2-{[3-(trifluoromethyl)phenyl]amino}pentyl)oxy]benzamide]	1100 ± 100 nM		2.5 µM	50 µM (≈ 20.1 µg/mL)	5 µM (≈ 2.01 µg/mL)	25 µM		50 µM (≈ 20.1 µg/mL)	50 µM (≈ 20.1 µg/mL)	50 µM (≈ 20.1 µg/mL)	100 µM (≈ 40.2 µg/mL)									
CCC[C@H](COc1ccc(F)c(C(N)=O)c1F)Nc1cccc(C(F)(F)F)c1 [(R)-26]	200 ± 100 nM		1 µM	100 µM (≈ 40.2 µg/mL)	2.5 µM (≈ 1.01 µg/mL)	10 µM	25 µM (≈ 10.1 µg/mL)	25 µM (≈ 10.1 µg/mL)	25 µM (≈ 10.1 µg/mL)	25 µM (≈ 10.1 µg/mL)	25 µM (≈ 10.1 µg/mL)	100 ± 1%	17.6 ±0.8	< 100 nM						
CCC[C@@H](COc1ccc(F)c(C(N)=O)c1F)Nc1cccc(C(F)(F)F)c1 [(S)-26]	3800 ± 200 nM		> 10 µM	100 µM (≈ 40.2 µg/mL)	50 µM (≈ 20.1 µg/mL)	100 µM		100 µM (≈ 40.2 µg/mL)						7000 nM	10–20 fold	4.9 ± 0.2				
NC(=O)c1c(F)ccc(OCc2cccc(C(F)(F)F)c2)c1F [Compound 20, 2,6-Difluoro-3-{[3-(trifluoromethyl)benzyl]oxy}benzamide]	700 ± 200 nM		10 µM	50 µM (≈ 16.6 µg/mL)	25 µM (≈ 8.28 µg/mL)	50 µM	100 µM (≈ 33.1 µg/mL)	50 µM (≈ 16.6 µg/mL)	25 µM (≈ 8.28 µg/mL)	25 µM (≈ 8.28 µg/mL)	25 µM (≈ 8.28 µg/mL)			700 ± 200 nM			84 ± 5%			
NC(=O)c1c(F)ccc(OCc2nc3cc(Cl)cnc3s2)c1F [PC190723, reference compound]	< 100 nM		2.5 µM	10 µM (≈ 3.56 µg/mL)	5 µM (≈ 1.78 µg/mL)	1 µM	5 µM (≈ 1.78 µg/mL)	5 µM (≈ 1.78 µg/mL)						< 100 nM				< 100 nM		
NC(=O)c1c(F)ccc(OCCNc2cccc(C(F)(F)F)c2)c1F [Compound 25, 2,6-Difluoro-3-(2-{[3-(trifluoromethyl)phenyl]amino}ethoxy)benzamide]	1900 ± 200 nM	88 ± 1%	5 µM	100 µM (≈ 36 µg/mL)	10 µM (≈ 3.6 µg/mL)	50 µM	100 µM (≈ 36 µg/mL)	100 µM (≈ 36 µg/mL)						300 nM					4.8 ± 0.1	27.4 ±0.9
